According to patent publication US20240197749A1, “METHOD OF INHIBITING LIPOGENESIS WITH UBIQUITIN-SPECIFIC PEPTIDASE 24 INHIBITOR COMPOSITION” (NATIONAL CHENG KUNG UNIVERSITY, priority 2022, published 2024):

Experiments:
USP24 [1] = target: T1, USP24 (Homo sapiens, UniProt Q9UPU5); settings: known; cited from earlier work
[2] = system: differentiated 3T3-L1 cells; experiment: Western blotting of proteins associated with adipocyte formation in 3T3-L1 cells; format: cell-based, mouse; settings: Western blot, vs DMSO
Procedure: (§1) Commercially available mouse fibroblast cell line 3T3-L1 was cultured in commercially available Dulbecco's Modified Eagle Medium (DMEM) containing 10% fetal bovine serum (FBS), 100 μg/mL streptomycin, and 100 U/ml penicillin G sodium salt. All cell cultures were maintained at 37° C. with 5% CO2.
(§2) Please referred to FIG. 6A, which illustrated the experimental procedure for evaluating the effects of USP24 inhibitor on the induction of 3T3-L1 cells into adipocytes according to an embodiment of the present invention. When 3T3-L1 cells reached approximately 70% confluence, the MDIR induction medium containing USP24 inhibitor (5 μM or 10 μM) was added to the cells on day 0 and cultured for 2 days. Subsequently, on day 2, the induction medium was replaced with fresh medium containing USP24 inhibitor (5 μM or 10 μM) and insulin (10 μg/mL), and the cells were cultured for an additional 2 days. Next, the culture medium was changed the fresh medium containing USP24 inhibitor on day 4, and the cells were cultured for 4-6 more days, allowing 3T3-L1 cells to differentiate into adipocytes or adipocyte-like cells. And then, the cells were stained with Oil-Red-O (on days 8-10) to assess the influence of USP24 inhibitor on adipocyte formation, as shown in FIGS. 6B and 6C.
The MDIR induction medium included 0.5 mM 3-isobutyl-1-methylxanthine (IBMX), 1 μM dexamethasone (D), […] insulin (I), and 1 μM rosiglitazone (R) in Dulbecco's Modified Eagle Medium (DMEM). The components M, D, R, and USP24 inhibitor were dissolved in dimethyl sulfoxide (DMSO) and then added to DMEM. The insulin culture medium contained 10 μg/mL insulin in DMEM, and the fresh medium included 10% fetal bovine serum (FBS) in DMEM.
It was known that PPAR-γ and PLIN1 were important markers for adipocytes. In this embodiment, commercially available antibodies were used to perform Western blotting on 3T3-L1 cells to evaluate the expression levels of proteins associated with adipocyte formation in response to USP24-i-a treatment, as shown in FIGS. 7A to 7G.

HFD mice [3] = experiment: treatment of HFD mice after obesity: body weight, visceral fat, fatty liver, eWAT and iWAT; format: in vivo
Description: (§3) In the previous studies of the inventors, USP24-i-101 treated (i.p.) the HFD mice from the initiation of the experiment. […] In this Example, USP24-i-101 treated the mice after obesity, not from initiation. Mice were fed with HFD for two months and then treated with USP24-i-101 one month (two times per week, i.p.).
In addition, USP24-i-101 could inhibit eWAT and iWAT of mice. The subcutaneous fat and visceral fat (around organs such as kidney and reproductive organs) were collected to analyze the size of the epididymal WAT [eWAT, as shown in FIG. 11D (a), upper panel of FIG. 11D(c) and upper panel of FIG. 11D(d)] and inguial WAT [iWAT, as shown in FIG. 11D(b), lower panel of FIG. 11D(c) and lower panel of FIG. 11D(d)].

HFD mice [4] = experiment: treatment of HFD mice from the initiation of the experiment (previous studies of the inventors); format: in vivo; settings: HFD mice treated i.p. from the initiation of the experiment
Description: as §3

CREB = CREB and its phosphorylation during 3T3-L1 differentiation; format: cell-based, mouse
HFD-mice = experiment: serum tests / safety assay by ELISA in ND and HFD mice; format: in vivo; settings: serum of HFD mice; i.p. 10 mg/kg once a week for two months
Procedure: As shown in FIGS. 10A to 10H, serum were collected from normal diet (ND) and high fat diet (HFD) mice with or without USP24-i-101 treatment to study the safety assay by ELISA assay.
In this Example, wild-type mice were fed a normal diet (ND) or a high-fat diet (HFD), and they were injected intraperitoneally (i.p.) with 10 mg/kg of USP24-i once a week for two consecutive months. Subsequently, mouse sera were collected, and serum-related indices were examined to assess the impact of USP24-i on lipogenesis and liver function, as depicted in FIGS. 10A to 10H.
There was no statistically significant difference of the time of latency to fall off the rotarod between the USP 24 KO mice and the wild-type USP 24 mice, as shown in FIG. 10B. Mouse sera were collected from normal diet (ND) and high fat diet (HFD) mice with or without USP24-i treatment to perform the safety evaluation by ELISA assay. […] Therefore, USP24 inhibitor could inhibit the lipogenesis, thereby improving liver activity.

USP24-WT mice = experiment: liver tissue section H&E staining after normal diet or high-fat diet and USP24 inhibitor; format: in vivo; settings: USP24 inhibitor oral 2 months
Description: (§4) Animal-related experiments had been reviewed and approved by the Institutional Animal Care and Use Committee (IACUC) of National Cheng Kung University (NCKU). These genetically modified mice were generated at the National Laboratory Animal Center (NLAC) in Tainan, Taiwan. After breeding, 2 months-old wild-type mice and genetically modified mice were used to study lipogenesis progress. The cages provided adequate space, and the population density allowed the animals to move freely. The provided feed was sufficient for the normal growth and maintenance of regular body weight in both wild-type and genetically modified mice. Genetically modified mice had access to fresh, uncontaminated drinking water. Genetically modified mice were observed and cared for at least 2 to 3 times a week. All animal-related procedures were conducted in accordance with relevant guidelines and regulations.
It was known that USP24 inhibitor (USP24-i1, NCI677397, Formula I-3-3) could block USP24 catalytic activity, delaying or reversing cancer drug resistance.

3T3-L1 cells = experiment: differentiation of 3T3-L1 cells into adipocytes, Oil-Red-O staining; format: cell-based, mouse; settings: 5 μM or 10 μM, MDIR induction, Oil-Red-O on days 8-10; dose-dependent; vs DMSO
Procedure: as §1
as §2, with “6C. […]” for “6C.”

HFD mice [5] = experiment: magnetic resonance imaging (MRI) of level and distribution of fat in HFD mice; settings: MRI in vivo signal and collected kidney organs
Description: The HFD mice with or without USP24-i-101 treatment according to the experimental flowchart of FIG. 12A were examined by magnetic resonance imaging (MRI) equipment to assess the level and distribution of fat inside them.

USP24-WT HFD mice = experiment: Oil-Red-O staining assay of liver tissue sections (hepatic lipid accumulation); format: in vivo; settings: i.p. 10 mg/kg once a week for two consecutive months
Description: as §4
In this embodiment, the analysis of hepatic lipid accumulation and distribution were performed using the Oil-Red-O staining assay. […] The USP24 inhibitor was administered by intraperitoneal injection (i.p.) at a dose of 10 mg/kg once a week for two consecutive months. Statistical analysis was conducted using a t-test, where * indicates p<0.01, and ** indicates p<0.005 (FIG. 5B).

USP24 [6] = target: T1, USP24; experiment: inhibition of USP24 activity; format: biochemical; settings: in comparison to USP24-i1; not shown in the figures
[7] = HFD two months, then treatment one month, two times per week, i.p.

T1 sequence (Q9UPU5 whole entry, species assumed): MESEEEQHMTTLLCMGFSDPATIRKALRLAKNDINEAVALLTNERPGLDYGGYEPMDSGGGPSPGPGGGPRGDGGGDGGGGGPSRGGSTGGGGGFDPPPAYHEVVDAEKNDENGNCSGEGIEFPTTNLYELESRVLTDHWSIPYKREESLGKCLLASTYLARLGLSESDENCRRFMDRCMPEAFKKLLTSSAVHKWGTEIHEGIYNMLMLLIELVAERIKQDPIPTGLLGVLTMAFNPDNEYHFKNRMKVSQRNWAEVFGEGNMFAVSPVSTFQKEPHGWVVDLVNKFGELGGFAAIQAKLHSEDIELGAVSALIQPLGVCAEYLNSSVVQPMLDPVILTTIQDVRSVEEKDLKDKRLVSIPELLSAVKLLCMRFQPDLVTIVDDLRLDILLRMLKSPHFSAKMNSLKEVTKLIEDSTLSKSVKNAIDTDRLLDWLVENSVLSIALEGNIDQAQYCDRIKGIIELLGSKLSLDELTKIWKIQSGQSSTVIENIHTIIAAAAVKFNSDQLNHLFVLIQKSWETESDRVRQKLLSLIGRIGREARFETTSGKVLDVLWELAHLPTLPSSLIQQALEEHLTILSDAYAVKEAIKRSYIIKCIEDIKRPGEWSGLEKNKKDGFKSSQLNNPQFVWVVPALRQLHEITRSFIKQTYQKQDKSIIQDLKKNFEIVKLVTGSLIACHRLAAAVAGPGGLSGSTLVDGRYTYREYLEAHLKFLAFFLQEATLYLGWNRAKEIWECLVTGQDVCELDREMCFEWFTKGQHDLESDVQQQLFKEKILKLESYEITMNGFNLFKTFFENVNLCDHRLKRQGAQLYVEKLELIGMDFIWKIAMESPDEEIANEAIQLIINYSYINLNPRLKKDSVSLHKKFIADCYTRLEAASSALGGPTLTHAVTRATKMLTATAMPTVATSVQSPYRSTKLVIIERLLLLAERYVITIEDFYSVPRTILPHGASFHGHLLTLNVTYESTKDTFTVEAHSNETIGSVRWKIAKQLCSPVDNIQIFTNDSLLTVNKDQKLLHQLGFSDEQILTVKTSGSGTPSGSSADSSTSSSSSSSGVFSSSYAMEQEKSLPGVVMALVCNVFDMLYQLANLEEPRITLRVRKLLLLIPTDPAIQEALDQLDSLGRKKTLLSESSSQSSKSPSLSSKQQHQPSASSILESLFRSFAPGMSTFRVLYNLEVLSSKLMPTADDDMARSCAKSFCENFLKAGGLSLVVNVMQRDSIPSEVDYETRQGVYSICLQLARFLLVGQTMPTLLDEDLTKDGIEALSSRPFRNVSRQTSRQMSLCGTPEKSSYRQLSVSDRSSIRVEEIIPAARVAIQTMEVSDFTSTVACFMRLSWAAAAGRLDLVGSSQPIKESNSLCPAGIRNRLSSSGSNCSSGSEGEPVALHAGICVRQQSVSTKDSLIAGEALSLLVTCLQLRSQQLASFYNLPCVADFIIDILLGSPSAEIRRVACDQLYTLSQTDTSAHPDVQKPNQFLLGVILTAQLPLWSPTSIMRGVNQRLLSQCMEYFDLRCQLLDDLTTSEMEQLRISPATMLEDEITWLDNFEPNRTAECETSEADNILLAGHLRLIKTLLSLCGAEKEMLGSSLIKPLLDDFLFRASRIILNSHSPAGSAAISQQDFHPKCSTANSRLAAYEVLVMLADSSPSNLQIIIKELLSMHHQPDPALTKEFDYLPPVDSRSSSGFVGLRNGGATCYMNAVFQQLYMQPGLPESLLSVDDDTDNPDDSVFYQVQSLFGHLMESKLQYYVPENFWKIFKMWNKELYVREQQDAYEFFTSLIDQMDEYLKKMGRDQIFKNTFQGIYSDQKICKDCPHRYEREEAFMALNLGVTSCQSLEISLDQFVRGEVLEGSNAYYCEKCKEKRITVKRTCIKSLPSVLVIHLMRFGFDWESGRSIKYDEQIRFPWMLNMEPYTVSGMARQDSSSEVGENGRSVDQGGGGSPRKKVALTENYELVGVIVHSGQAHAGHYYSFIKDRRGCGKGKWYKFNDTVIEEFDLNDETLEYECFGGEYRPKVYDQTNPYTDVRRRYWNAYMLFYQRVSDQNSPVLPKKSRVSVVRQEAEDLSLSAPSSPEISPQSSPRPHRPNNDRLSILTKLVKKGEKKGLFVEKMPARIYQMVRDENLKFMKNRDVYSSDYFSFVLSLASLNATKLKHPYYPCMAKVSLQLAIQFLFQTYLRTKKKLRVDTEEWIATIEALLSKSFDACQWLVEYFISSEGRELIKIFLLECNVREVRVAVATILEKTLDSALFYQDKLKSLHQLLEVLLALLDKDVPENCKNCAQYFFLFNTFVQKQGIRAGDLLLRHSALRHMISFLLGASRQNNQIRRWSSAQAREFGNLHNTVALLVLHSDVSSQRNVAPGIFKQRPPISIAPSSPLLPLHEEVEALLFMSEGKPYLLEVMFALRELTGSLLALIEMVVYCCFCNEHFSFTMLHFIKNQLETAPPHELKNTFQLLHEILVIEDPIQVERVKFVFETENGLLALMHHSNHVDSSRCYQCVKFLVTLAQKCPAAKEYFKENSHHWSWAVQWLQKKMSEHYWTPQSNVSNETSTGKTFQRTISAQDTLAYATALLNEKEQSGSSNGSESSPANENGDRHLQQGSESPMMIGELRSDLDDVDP

CN1CCN(CCCCN2c3ccccc3Sc3ccc(C(=O)c4ccccc4)cc32)CC1 [USP24-i1]
USP24 catalytic activity (USP24 [1]): could block

CN1CCN(CCN2c3ccccc3Sc3ccc(C(=O)c4ccccc4)cc32)CC1 [USP24-i-a]
expression level of C/EBPβ [2]: also reduced | expression level of SREBP1 [2]: also reduced | expression level of PLIN1 (Perilipin 1) ([2]; dose-dependent): reduced | expression level of PPAR-γ ([2]; dose-dependent): reduced | size of epididymal WAT (eWAT) (HFD mice [3]; HFD mice): could be inhibited | size of inguial WAT (iWAT) (HFD mice [3]; HFD mice): could be inhibited | body weight (HFD mice [3]; [7]): significantly decreased | fatty liver (HFD mice [3]; [7]): really decreased | visceral fat (HFD mice [3]; [7]): really decreased | body weight (HFD mice [4]): could be inhibited | fatty liver (HFD mice [4]): could be inhibited | CREB (CREB): inhibited | CREB phosphorylation (CREB): inhibited | GOT (glutamic oxaloacetic transaminase) (HFD-mice): significantly inhibited | GPT (glutamic pyruvic transaminase) (HFD-mice): significantly inhibited | albumin (ALB) (HFD-mice): did not significantly change | total cholesterol (HFD-mice): significantly inhibited | total protein (TP) (HFD-mice): did not significantly change | triglyceride (TG) (HFD-mice): did not significantly change | lipid droplets in liver (H&E) (USP24-WT mice; USP24-WT HFD mice, 2 months high-fat diet): few to no lipid droplets | lipid droplets in liver (H&E) (USP24-WT mice; USP24-WT ND mice, 2 months normal diet): few to no lipid droplets | lipid droplet accumulation (3T3-L1 cells): significant reversal | signal of fat around subcutaneous and organs (HFD mice [5]): significantly inhibited | signals of Oil-Red-O staining in the liver (USP24-WT HFD mice): significantly reduced or nearly disappeared | inhibition of USP24 activity (USP24 [6]): superior inhibition
